Test results from patent publication US9770026B2, “Substituted pyrimidine compound and uses thereof” (Shenyang Sinochem Agrochemicals R&D Co., Ltd., priority 2012, dated 2017).

How the values were obtained:
rice blast = assay: microbe, parasite or virus in culture; assay type: cell-based; conditions: Pyricularia oryzae; for inhibition at 25 ppm: read-out: inhibition rate against rice blast, 25 ppm, in vitro
Diamond back moth = assay: insecticidal activity against diamond back moth, airbrush spray; assay type: in vivo; conditions: for pest or weed control at 600 µg/mL / pest or weed control at 10 µg/mL / pest or weed control at 100 µg/mL: 72 h; for pest or weed control at 600 µg/mL: 600 mg/L; for pest or weed control at 10 µg/mL: 10 mg/L; for pest or weed control at 100 µg/mL: 100 mg/L; for control (test results against diamond back moth): mortality after 72 hrs
Summary of the method: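 Airbrush leaf-disc spray test: both faces of 2 cm cabbage discs received 0.5 ml of test solution at 0.7 kg/cm^2. Solutions were made in acetone:methanol (1:1) and brought to concentration with 0.1% Tween 80 in water. Ten second-instar larvae per disc, triplicates, were held at 25° C and 60˜70% R.H., with mortality recorded at 72 hrs.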

armyworm = assay: bioactivity test against armyworm, airbrush spray; assay type: in vivo; conditions: for pest or weed control at 600 µg/mL: 600 mg/L; for control (test results against armyworm): mortality after 72 h
[1] = test system: Green peach aphids (Myzus Persicae Sulzer); assay: bioactivity test against green peach aphid, airbrush foliar spray; assay type: in vivo; conditions: for control (test results against green peach aphid): death rate after 48 hrs
Summary of the method: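 Aphids (15-30 per cabbage leaf disc) on moist filter paper were airbrush-sprayed at 10 psi, 0.5 mL, with compound from acetone:methanol (1:1) diluted in water with 0.1% tween 80. Held at 25±1 C, 60±5% RH; survivors counted after 48 hrs to give death rates.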

carmine spider mite = assay: bioactivity test against carmine spider mite, airbrush spray; assay type: in vivo; conditions: for pest or weed control at 600 µg/mL / pest or weed control at 10 µg/mL / pest or weed control at 100 µg/mL: Tetranychus cinnabarinus, 72 h, read-out: Insecticidal activity against carmine spider mite (% ); for control against carmine spider mite: mortality after 72 hrs
Summary of the method: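 Broadbean seedlings infested with adult mites were sprayed with compound (acetone/methanol stock diluted in 0.1% Tween 80 water) by airbrush at 0.7 kg/cm^2, 0.5 ml. Three replicates were run. Mortality was scored after 72 hrs.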

corn rust = assay: protectant activity in vivo against corn rust; conditions: for pest or weed control at 400 µg/mL / pest or weed control at 0.4 µg/mL / pest or weed control at 1.6 µg/mL / pest or weed control at 6.25 µg/mL / pest or weed control at 25 µg/mL / pest or weed control at 100 µg/mL: Zea mays, 168 h, protectant activity; for pest or weed control at 400 µg/mL: read-out: control effect against corn rust (%), 400 mg/L; for pest or weed control at 0.4 µg/mL: read-out: control effect against corn rust (%), 0.4 mg/L; for pest or weed control at 1.6 µg/mL: read-out: control effect against corn rust (%), 1.6 mg/L; for pest or weed control at 6.25 µg/mL: read-out: control effect against corn rust (%), 6.25 mg/L; for pest or weed control at 25 µg/mL: read-out: control effect against corn rust (%), 25 mg/L; for pest or weed control at 100 µg/mL: read-out: control effect against corn rust (%), 100 mg/L
wheat powdery mildew = assay: protectant activity in vivo against wheat powdery mildew; conditions: for pest or weed control at 400 µg/mL: read-out: control effect against wheat powdery mildew (%), 400 mg/L
cucumber downy mildew = assay: protectant activity in vivo against cucumber downy mildew; conditions: Cucumis sativus, 168 h, protectant activity; for pest or weed control at 25 µg/mL: read-out: control effect against cucumber downy mildew (%), 25 mg/L; for pest or weed control at 50 µg/mL: read-out: control effect against cucumber downy mildew (%), 50 mg/L; for pest or weed control at 100 µg/mL: read-out: control effect against cucumber downy mildew (%), 100 mg/L; for pest or weed control at 400 µg/mL: read-out: control effect against cucumber downy mildew (%), 400 mg/L
[2] = 72 h, read-out: Insecticidal activity against armyworm (%)
[3] = Myzus persicae, foliar, 48 h, 10 mg/L, contrastive test, read-out: Insecticidal activity against peach aphid (%)
[4] = Myzus persicae, foliar, 48 h, 100 mg/L, contrastive test, read-out: Insecticidal activity against peach aphid (%)
[5] = Myzus persicae, foliar, 48 h, 600 mg/L, contrastive test, read-out: Insecticidal activity against peach aphid (%)
[6] = Triticum aestivum, 168 h, protectant activity
[7] = Myzus persicae, foliar, 48 h, 5 mg/L, contrastive test, read-out: Insecticidal activity against peach aphid (%)

Compound: Cc1ncnc(NCc2ccc(Oc3ncc(Cl)cc3Cl)cc2)c1Cl [CK37, reference compound]
- inhibition at 25 ppm (rice blast): < 50%
- pest or weed control at 600 µg/mL (Diamond back moth): 0%
- pest or weed control at 600 µg/mL (armyworm; [2]): 0%
- pest or weed control at 10 µg/mL [1, 3]: 0%
- pest or weed control at 100 µg/mL [1, 4]: 16%
- pest or weed control at 600 µg/mL [1, 5]: 100%
- pest or weed control at 600 µg/mL (carmine spider mite; 600 mg/L, contrastive test): 0%
- pest or weed control at 400 µg/mL (corn rust): 0%
- pest or weed control at 400 µg/mL (wheat powdery mildew; [6]): 0%
- pest or weed control at 25 µg/mL (cucumber downy mildew): 0%
- pest or weed control at 50 µg/mL (cucumber downy mildew): 10%
- pest or weed control at 100 µg/mL (cucumber downy mildew): 20%
- pest or weed control at 400 µg/mL (cucumber downy mildew): 100%

Compound: CCc1ncnc(NCc2ccc(Oc3ncc(C(F)(F)F)cc3Cl)cc2)c1Cl [CK38, reference compound]
- inhibition at 25 ppm (rice blast): 0%
- pest or weed control at 10 µg/mL (Diamond back moth): 5%
- pest or weed control at 100 µg/mL (Diamond back moth): 21%
- pest or weed control at 600 µg/mL (Diamond back moth): 100%
- pest or weed control at 600 µg/mL (armyworm; [2]): 0%
- pest or weed control at 10 µg/mL [1, 3]: 0%
- pest or weed control at 100 µg/mL [1, 4]: 24%
- pest or weed control at 600 µg/mL [1, 5]: 100%
- pest or weed control at 10 µg/mL (carmine spider mite; 10 mg/L, contrastive test): 14%
- pest or weed control at 100 µg/mL (carmine spider mite; 100 mg/L, contrastive test): 37%
- pest or weed control at 600 µg/mL (carmine spider mite; 600 mg/L, contrastive test): 99%
- pest or weed control at 400 µg/mL (corn rust): 0%

Compound: CCc1ncnc(NC(C)c2ccc(Oc3ncc(C(F)(F)F)cc3Cl)cc2)c1Cl (stereo not drawn) [CK39, reference compound]
- inhibition at 25 ppm (rice blast): 0%
- pest or weed control at 10 µg/mL (Diamond back moth): 0%
- pest or weed control at 100 µg/mL (Diamond back moth): 20%
- pest or weed control at 600 µg/mL (Diamond back moth): 80%
- pest or weed control at 600 µg/mL (armyworm; [2]): 0%
- pest or weed control at 5 µg/mL [1, 7]: 0%
- pest or weed control at 10 µg/mL [1, 3]: 2%
- pest or weed control at 100 µg/mL [1, 4]: 86%
- pest or weed control at 600 µg/mL [1, 5]: 100%
- pest or weed control at 10 µg/mL (carmine spider mite; 10 mg/L, contrastive test): 16%
- pest or weed control at 100 µg/mL (carmine spider mite; 100 mg/L, contrastive test): 37%
- pest or weed control at 600 µg/mL (carmine spider mite; 600 mg/L, contrastive test): 100%
- pest or weed control at 0.4 µg/mL (corn rust): 0%
- pest or weed control at 1.6 µg/mL (corn rust): 10%
- pest or weed control at 6.25 µg/mL (corn rust): 50%
- pest or weed control at 25 µg/mL (corn rust): 80%
- pest or weed control at 100 µg/mL (corn rust): 100%
- pest or weed control at 400 µg/mL (corn rust): 100%

Compound: CCC(Nc1ncnc(C)c1Cl)c1ccc(Oc2ccc(C(F)(F)F)cn2)cc1 (stereo not drawn) [CK41, reference compound]
- inhibition at 25 ppm (rice blast): < 50%
- pest or weed control at 10 µg/mL (Diamond back moth): 0%
- pest or weed control at 100 µg/mL (Diamond back moth): 53%
- pest or weed control at 600 µg/mL (Diamond back moth): 86%
- pest or weed control at 10 µg/mL (armyworm; 72 h, 10 mg/L, read-out: Insecticidal activity against armyworm (%)): 0%
- pest or weed control at 100 µg/mL (armyworm; 72 h, 100 mg/L, read-out: Insecticidal activity against armyworm (%)): 0%
- pest or weed control at 600 µg/mL (armyworm; [2]): 100%
- pest or weed control at 2.5 µg/mL ([1]; Myzus persicae, foliar, 48 h, 2.5 mg/L, contrastive test, read-out: Insecticidal activity against peach aphid (%)): 0%
- pest or weed control at 5 µg/mL [1, 7]: 15%
- pest or weed control at 10 µg/mL [1, 3]: 23%
- pest or weed control at 100 µg/mL [1, 4]: 97%
- pest or weed control at 600 µg/mL [1, 5]: 100%
- pest or weed control at 10 µg/mL (carmine spider mite; 10 mg/L, contrastive test): 0%
- pest or weed control at 100 µg/mL (carmine spider mite; 100 mg/L, contrastive test): 99%
- pest or weed control at 600 µg/mL (carmine spider mite; 600 mg/L, contrastive test): 100%
- pest or weed control at 0.4 µg/mL (corn rust): 0%
- pest or weed control at 1.6 µg/mL (corn rust): 20%
- pest or weed control at 6.25 µg/mL (corn rust): 80%
- pest or weed control at 25 µg/mL (corn rust): 90%
- pest or weed control at 100 µg/mL (corn rust): 100%
- pest or weed control at 400 µg/mL (corn rust): 100%
- pest or weed control at 6.25 µg/mL (wheat powdery mildew; Triticum aestivum, 168 h, read-out: control effect against wheat powdery mildew (%), 6.25 mg/L, protectant activity): 0%
- pest or weed control at 25 µg/mL (wheat powdery mildew; Triticum aestivum, 168 h, read-out: control effect against wheat powdery mildew (%), 25 mg/L, protectant activity): 50%
- pest or weed control at 100 µg/mL (wheat powdery mildew; Triticum aestivum, 168 h, read-out: control effect against wheat powdery mildew (%), 100 mg/L, protectant activity): 70%
- pest or weed control at 400 µg/mL (wheat powdery mildew; [6]): 100%

Compound: CC(Cl)c1ncnc(NCc2ccc(Oc3ccc(C(F)(F)F)cn3)cc2)c1Cl (stereo not drawn) [CK43, reference compound]
- inhibition at 25 ppm (rice blast): < 50%
- pest or weed control at 600 µg/mL (Diamond back moth): 0%
- pest or weed control at 600 µg/mL (armyworm; [2]): 0%
- pest or weed control at 600 µg/mL [1, 5]: 0%
- pest or weed control at 10 µg/mL (carmine spider mite; 10 mg/L, contrastive test): 16%
- pest or weed control at 100 µg/mL (carmine spider mite; 100 mg/L, contrastive test): 29%
- pest or weed control at 600 µg/mL (carmine spider mite; 600 mg/L, contrastive test): 74%
- pest or weed control at 400 µg/mL (corn rust): 85%
- pest or weed control at 400 µg/mL (wheat powdery mildew; [6]): 20%
- pest or weed control at 25 µg/mL (cucumber downy mildew): 0%
- pest or weed control at 50 µg/mL (cucumber downy mildew): 20%
- pest or weed control at 100 µg/mL (cucumber downy mildew): 40%
- pest or weed control at 400 µg/mL (cucumber downy mildew): 100%

Compound: CCc1ncnc(NCCc2ccc(Oc3ccc(C(F)(F)F)cn3)cc2)c1Cl [Compound I-6758]
- inhibition at 8.3 ppm (rice blast; read-out: inhibition rate against rice blast, 8.3 ppm, in vitro): 80 to 99%
- control (test results against diamond back moth) (Diamond back moth; 100 ppm): 100%
- control (test results against diamond back moth) (Diamond back moth; 600 ppm): 100%
- control (test results against armyworm) (armyworm; 100 ppm): 100%
- control (test results against armyworm) (armyworm; 600 ppm): 100%
- Insecticidal activity against peach aphid (%) ([1]; 1.25 mg/L, contrastive test): 89%
- Insecticidal activity against peach aphid (%) ([1]; 2.5 mg/L, contrastive test): 100%
- Insecticidal activity against peach aphid (%) ([1]; 5 mg/L, contrastive test): 100%
- Insecticidal activity against peach aphid (%) ([1]; 10 mg/L, contrastive test): 100%
- Insecticidal activity against peach aphid (%) ([1]; 100 mg/L, contrastive test): 100%
- Insecticidal activity against peach aphid (%) ([1]; 600 mg/L, contrastive test): 100%
- control (test results against green peach aphid) ([1]; 2.5 ppm): 100%
- control (test results against green peach aphid) ([1]; 5 ppm): 100%
- control (test results against green peach aphid) ([1]; 10 ppm): 100%
- control (test results against green peach aphid) ([1]; 100 ppm): 100%
- control (test results against green peach aphid) ([1]; 600 ppm): 100%
- Insecticidal activity against carmine spider mite (% ) (carmine spider mite; 2.5 mg/L): 79%
- Insecticidal activity against carmine spider mite (% ) (carmine spider mite; 5 mg/L): 82%
- Insecticidal activity against carmine spider mite (% ) (carmine spider mite; 10 mg/L, contrastive test): 99%
- Insecticidal activity against carmine spider mite (% ) (carmine spider mite; 100 mg/L, contrastive test): 100%
- Insecticidal activity against carmine spider mite (% ) (carmine spider mite; 600 mg/L, contrastive test): 100%
- control against carmine spider mite (carmine spider mite; 100 ppm): 100%
- control against carmine spider mite (carmine spider mite; 600 ppm): 100%
- protectant activity against corn rust in vivo (corn rust; 100 ppm): 100%
- protectant activity against corn rust in vivo (corn rust; 400 ppm): 100%
- protectant activity against wheat powdery mildew in vivo (wheat powdery mildew; 100 ppm): 100%
- protectant activity against wheat powdery mildew in vivo (wheat powdery mildew; 400 ppm): 100%
